Literature values in US8759069B2, “Contaminant control in Zymomonas fermentation using hop acids” (priority 2012, dated 2014).

Experiments:
bacterial contamination = settings: batch Zymomonas mobilis fermentation for ethanol production
[1] = system: Zymomonas mobilis strain ZM4; settings: antibiotic concentrations that are safe to use with yeast

Compound: CC1(C)S[C@@H]2[C@H](NC(=O)Cc3ccccc3)C(=O)N2[C@H]1C(=O)O [penicillin G]
- control of bacterial contamination (bacterial contamination): successfully used to control bacterial contamination
- effect on Zymomonas mobilis strain ZM4 [1]: safe for use with Zymomonas

Compound: [H]/N=C(/N)N[C@H]1[C@H](O)[C@@H](O)[C@H](O[C@@H]2O[C@@H](C)[C@](O)(C=O)[C@H]2O[C@@H]2O[C@@H](CO)[C@H](O)[C@@H](O)[C@@H]2NC)[C@@H](N/C(N)=N\[H])[C@@H]1O [streptomycin]
- effect on Zymomonas mobilis strain ZM4 [1]: inhibitory to growth

Compound: polymixin
- effect on Zymomonas mobilis strain ZM4 [1]: inhibitory to growth
